US20150072995A1, “TREATMENT OF MALE SEXUAL DYSFUNCTION” (Ixchelsis Limited, priority 2002, published 2015)
Read-outs that look alike come from different tables or passages of the source.

Legend:
human volunteers = conditions: cited from earlier work
[1] = target: T1, Human cloned vasopressin V1a receptor in CHO cells (Homo sapiens, UniProt P37288); assay: Vasopressin V1a receptor binding assay (3H-AVP, filtration); conditions: printed as [6.3 nM OT: 148 nM V1a]; read-out: V1a (vasopressin V1a receptor affinity)
T1 construct: expressed in transfected cells; host or cells: CHO cells (membrane preparation)
Protocol: B. Vasopressin VIA Receptor Binding Assay
iii) Membrane Preparation • Frozen cell pellets are retrieved from the freezer and thawed gently on ice. • 3 ml of membrane prep buffer per ml of original packed cell volume is • added and the suspension homogenised with a polytron for several bursts • of 5 seconds on ice until well dispersed before centrifuging at 1000 rpm for 10 mins • The supernatant is removed and stored on ice. A further 3 ml of membrane prep buffer per ml of original packed cell volume is added to the pellet, homogenised on ice and then centrifuged at 1000 rpm for 10 mins • The supernatant is removed, added to the previously removed volume of supernatant and then centrifuged at 25,000×g and 4° C. for 30 mins • The 25,000×g pellet is re-suspended by homogenisation in 1 ml of freezing buffer per ml of original packed cell volume and the protein concentration determined […]
Specific binding is calculated as follows: […]

anaesthetised rats [2] = assay: Penile erection and p-chloroamphetamine (PCA)-induced ejaculation test in anaesthetised rats; type: in vivo, rat
anaesthetised rats [3] = assay: Splanchnic nerve-stimulated seminal vesicle pressure in anaesthetised rats; type: in vivo, rat
From the text: Seminal vesicle contraction is essential for emission and the seminal fluid delivered into the prostatic urethra is thought to trigger ejaculation. Oxytocin has direct contractile effects on mammalian seminal vesicles and may additionally have a neuromodulator role influencing sympathetic innervation during ejaculation. In this study seminal vesicle contraction was reduced by 41% after a 1 mgkg^−1 bolus injection (see FIG. 2 below).

oxytocin receptor = target: T2, oxytocin receptor (Homo sapiens, UniProt P30559); assay: biochemical
T2 sequence (P30559 1-389): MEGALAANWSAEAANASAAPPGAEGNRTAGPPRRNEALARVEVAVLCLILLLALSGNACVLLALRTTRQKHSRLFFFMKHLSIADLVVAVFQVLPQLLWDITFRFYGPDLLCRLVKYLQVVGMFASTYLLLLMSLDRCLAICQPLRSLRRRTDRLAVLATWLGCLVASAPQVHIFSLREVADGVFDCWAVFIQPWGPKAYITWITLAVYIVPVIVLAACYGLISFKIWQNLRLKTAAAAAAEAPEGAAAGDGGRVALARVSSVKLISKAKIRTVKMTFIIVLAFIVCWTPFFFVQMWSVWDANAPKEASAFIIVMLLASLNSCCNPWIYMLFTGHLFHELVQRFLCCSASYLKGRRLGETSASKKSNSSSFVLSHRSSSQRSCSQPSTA
Protocol: • a) HTA stock compounds at 4 mM in 100% DMSO • b) Dilute compounds to 200 μM in dH2O. • c) Further dilute compounds to 100 μM in 100 mM Tris-HCl, pH 7.8, 20 mM MgCl2. […]
• Cell pellets are retrieved from the freezer, thawed on ice and resuspended in 3 ml of membrane prep buffer per ml packed cell volume. • The suspension is then homogenised using a mechanical homogeniser for several bursts of 5 secs on ice before centrifuging at 25,000×g for 30 mins. • After resuspending the pellet in 1 ml of freezing buffer per 1 ml of the original packed cell volume the suspension is briefly homogenised to remove small lumps. Protein concentrations are then measured and the membrane suspension is finally frozen in aliquots at a minimum of 5 mg/ml at −80° C.
• Membranes are thawed on ice before diluting to 1 mg/ml in assay buffer. […] Following a 4 hour incubation at room temperature, the plates are counted using the TopCount NXT for 30 s/well.
For the test compounds, the amount of ligand bound to the receptor is expressed as follows: […]

[4] = tested on: sexually-experienced rats; assay: Male sexual behaviour model (copulatory behaviour with receptive female); type: in vivo, rat
Protocol: For all the sexual behaviour tests, the male rats were placed in an observation arena (50-60 cm diameter), starting 5 hours into the dark cycle and observed under red illumination. Three to four minutes after placing the male in the arena, a receptive female (ovariectomised, oestradiol benzoate/progesterone injection 48 hour before behavioural study) was introduced into the arena and the following parameters noted: • i) ejaculatory latency (EJL; time taken from addition of receptive female into the arena to ejaculation); • ii) copulatory efficiency (CE; ejaculatory latency/the number of intromissions to ejaculation, i.e. the number of seconds between intromissions); • iii) intromission frequency (IF; the number of intromissions to ejaculation); • iv) mount frequency (MF; the number of mounts to ejaculation); • v) post ejaculatory interval (PEI; the time taken from ejaculation to the commencement of copulatory behaviour).

CNS penetration = conditions: in vivo
[5] = Free plasma concentration in rats; type: in vivo, rat; conditions: for concentration at 30 minutes: rat, plasma, preliminary pharmacokinetic studies
experienced male rats = conditions: ICV injection, Argiolas et al 1988; cited from earlier work
rat [6] = conditions: 100 ng/rat icv; cited from earlier work
rat [7] = conditions: cited from earlier work
rats = conditions: cited from earlier work
[8] = tested on: rats, rabbits and monkeys; conditions: cited from earlier work
male animals = conditions: cited from earlier work
[9] = infusion into the 3rd ventricle

T1 sequence (P37288 whole entry): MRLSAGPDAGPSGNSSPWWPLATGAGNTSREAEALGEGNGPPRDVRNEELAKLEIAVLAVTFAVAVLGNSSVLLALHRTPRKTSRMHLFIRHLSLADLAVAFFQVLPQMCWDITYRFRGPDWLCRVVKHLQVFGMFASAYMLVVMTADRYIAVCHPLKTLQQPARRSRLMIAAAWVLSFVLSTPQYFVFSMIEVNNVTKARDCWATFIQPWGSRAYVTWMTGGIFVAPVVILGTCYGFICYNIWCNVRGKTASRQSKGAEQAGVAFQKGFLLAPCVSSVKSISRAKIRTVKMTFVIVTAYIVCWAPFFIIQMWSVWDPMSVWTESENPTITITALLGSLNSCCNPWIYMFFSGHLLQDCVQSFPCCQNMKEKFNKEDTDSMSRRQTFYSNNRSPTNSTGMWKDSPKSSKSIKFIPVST

For `C=CCN1CC[C@]23c4c5ccc(O)c4O[C@H]2C(=O)CC[C@@]3(O)[C@H]1C5` [naloxone], the effect on ejaculation (human volunteers) is given as “no effect” and the “serum oxytocin pulse typically observed at ejaculation” value (human volunteers) is given as “eliminated”.
With `Cc1ccccc1N1CCN(S(=O)(=O)CC23CCC(C[C@@H]2NC(=O)[C@@H](N)CCS(C)(=O)=O)C3(C)C)CC1` (stereo partly drawn) [L-368,899] the Ki [1] was 0.148 µM, the “PCA-induced erections resulting in penile cups” value (anaesthetised rats [2]; 0.1 mg/kg) was 98% and the “PCA-induced erections resulting in penile flares” value (anaesthetised rats [2]; 0.1 mg/kg) was 88%. The “PCA-induced erections resulting in penile cups” value (anaesthetised rats [2]; 1.0 mg/kg sc) was 95%, the “PCA-induced erections resulting in penile flares” value (anaesthetised rats [2]; 1.0 mg/kg sc) was 61% and the “Ejaculation delayed (near maximal effect)” value (anaesthetised rats [2]; PCA-induced ejaculation, at free plasma concentrations 5.4±1.5 nM) was 140%. For the same compound, the “delay of PCA-induced ejaculation” value (anaesthetised rats [2]; anaesthetised rats, 0.1-10 mgkg^−1 sc) was “significantly delayed”, the “splanchnic nerve-stimulated increases in seminal vesicle pressure” value (anaesthetised rats [3]; 1-3 mgkg^−1 iv) was “significantly reduced” and the “reduction of seminal vesicle contraction” value (anaesthetised rats [3]; after a 1 mgkg^−1 bolus injection) was 41%. For the same compound, the Ki (oxytocin receptor) was 0.0063 µM, the “effect on copulatory efficiency” value ([4]; 50 ng/rat icv) was “no significant effects” and the “effect on copulatory efficiency” value ([4]; any of the doses tested, 0.05-10 mgkg^−1 sc) was “no effects”. For the same compound, the “effect on copulatory behaviour” value ([4]; doses up to 10 mgkg^−1 sc) was “no effect”, the CNS penetration (CNS penetration) was “very poor” and the free plasma concentration ([5]; after a 1.0 mgkg^−1 iv injection, based on literature PK and protein plasma binding) was “approximately 60 nM”. For the same compound, the “free plasma concentration at which ejaculation was delayed 140%” value ([5]; anaesthetised rats, sc) was 5.4 ± 1.5 nM, the concentration at 30 minutes ([5]; 30 minutes after 1 mgkg^−1 sc) was 4.5 nM and the concentration at 30 minutes ([5]; 30 minutes after 10 mgkg^−1 sc) was 40 nM.
In the case of d(CH2)5Tyr(Me)-Orn^8-vasotocin, the ejaculation (experienced male rats) is given as “abolishment”, the penile erection (experienced male rats) is given as “prevent penile erection” and the sexual performance (experienced male rats) is given as “impair”. For the same compound, the copulatory behaviour ([4]; 50 ng/rat icv) was “abolished”, the “effect on ejaculatory latency” value ([4]; doses up to 25 ng/rat icv, previous studies) was “no effect” and the drug-induced erections (rat [6]) was “abolished”. The “number of non-contact erections” value (rat [7]; 100 ng/rat icv) was “reduces” and the non-contact penile erections (rat [7]; Melis et al 1999, dose not given) was “significantly reduces”.
In the case of `CC[C@H](C)[C@@H]1NC(=O)[C@H](Cc2ccc(O)cc2)NC(=O)[C@@H](N)CSSC[C@@H](C(=O)N2CCC[C@H]2C(=O)N[C@@H](CC(C)C)C(=O)NCC(N)=O)NC(=O)[C@H](CC(N)=O)NC(=O)[C@H](CCC(N)=O)NC1=O` [oxytocin], the ejaculatory latency (rats; [9]) is listed as “no effect”, the “latencies to the first mount and intromission” value (rats; [9]) is listed as “increased” and the “post ejaculatory refractory periods” value (rats; [9]) is listed as “lengthened”. The ejaculatory latency (rats; intravenous infusion) was “no effect”, the “number of intromissions made before ejaculation” value (rats; intravenous infusion) was “dose dependently reduced” and the “latency to achieve ejaculation” value ([8]; central administration) was “reduce”. For the same compound, the post-ejaculatory interval ([8]; central administration) was “shorten”, the “induction of penile erection” value ([8]; rats, rabbits and monkeys) was “one of the most potent agents to induce penile erection” and the “ejaculation latency and post-ejaculation interval” value (male animals; injected either centrally or peripherally) was “shortens”. For the same compound, the penile erections (male animals; injected into specific areas of the brain (periventricular nucleus of the hypothalamus)) was “facilitates”.
